How the values were obtained:
[1] = molecular target: GABAA receptors containing the a5 subunit (Homo sapiens, UniProt P18507+P31644); conditions: cited from earlier work
[2] = molecular target: GABAA receptors containing the a3 subunit (Homo sapiens, UniProt P18507+P34903); conditions: cited from earlier work
[3] = tested on: electrocutaneous stimulation-induced facial pain rodent model; assay: ES-induced facial pain model, cold thermal allodynia (acetone test), acute treatment; type: in vivo, Sprague-Dawley rats
Text: The electrocutaneous stimulation-induced facial pain rodent model is a reproducible orofacial pain model in which depilated cheek area of rats are repeatedly subjected to electrical stimulation. Repeated electrical stimulation at low intensities produces craniofacial pain that mimics the behavioral characteristics of TN such as development of mechanical and thermal allodynia at cheeks despite no visible edema, swelling or excessive injury and tissue damage.
Male wild type, Sprague-Dawley rats (Charles River Laboratories) born in-house at AfaSci Research Laboratory between May 24, 2020 to May 28, 2020. At approximately 3 months of age (approximately 350 g-450 g body weight) the rats were deemed suitable for the electrocutaneous stimulation-induced facial pain model. Prior to the experiment, the rats were maintained in group cages (3 rats per cage) in a controlled environment (temperature: 21.5±4.5° C./relative humidity: 35-55%) under a standard 12 h light/12 h dark lighting cycle (lights on at 06:00).
The required quantity of the compounds are weighed and dissolved in 100% DMSO in a volume amounting to 5% of the total volume while placed on a stirrer. The weight of the compounds refers to the free base weights. […]
Second baseline measurement was carried out similarly to day 1. […] For each animal, the average of the two baseline nociceptive measurements were calculated within each pain modality (mechanical, heat- and cold pain), and used as baseline (“Baseline” point on figures).
Similarly, to day 1- and 2, all rats were subjected to acclimatization to test equipment and decapicone followed by measurements of ES-induced facial mechanical- heat- and cold allodynia (“0” time point on figures). […] Compound 1, vehicle and Carbamazepine was administered perorally in doses of 1, 3, and 10 mg/kg (Compound 1) or 30 mg/kg (carbamazepine) and drug effects on pain thresholds were evaluated 2- and 4 hours after drug administration by assessment of mechanical- (von Frey) and thermal hypersensitivity (heat- and cold stimulation respectively). […]

[4] = tested on: electrocutaneous stimulation-induced facial pain rodent model; assay: ES-induced facial pain model, cold thermal allodynia (acetone test), prophylactic and acute treatment; type: in vivo, Sprague-Dawley rats; conditions: for development of cold allodynia vs vehicle: day 9 at 0 time
Experimental: Cold Thermal threshold was assessed by measuring each rat's facial withdrawal latency (seconds) in response to a single 10 uL drop of acetone directly on the depilated and stimulated rat cheek. Cutoff was set at 60 seconds. Facial withdrawal response criteria were as following: burrowing head, shaking of head back-and-forth, excessive blinking, turning head away from experimenter. Unless stated otherwise, the same materials, methods, and provisions of Example 1 were applied to Example 2. The required quantity of the compound is weighed and dissolved in 100% DMSO in a volume amounting to 5% of the total volume while placed on a stirrer. The weight of the compounds refers to the free base weights. Once the solution becomes clear/transparent, the remaining volume of the vehicle is added (30% HPBCD prepared in MQ water) to final concentrations of 0.03, 0.1, and 0.3 mg/ml for Compound 1. The solutions are kept on a stirrer before- and during administration of the compounds to the animals. The experimenter assessing the behavioral responses to drug administration is blinded to the drug treatment to the animals. Each treatment group is coded according the scheme below: • A. Vehicle (5% DMSO+30% HPBCD): 10 ml/kg • B. Compound 1: 0.3 mg/kg • C. Compound 1: 1 mg/kg • D. Compound 1: 3 mg/kg • F. Compound 1: 3 mg/kg—acute Second baseline measurement was carried out similarly to day 1, For each animal, the average of the two baseline nociceptive measurements was calculated within each pain modality (mechanical, heat- and cold pain), and used as baseline (“Baseline” point on figures). Then all rats in the above respective group (A-D) are given treated as mentioned. Group F received vehicle treatment. Treatment is continued once daily to each group same as Day 2 All rats were treated with respective treatment as per day 3-7. After 1 hr of treatment, each rat was subjected to 1 hr of electrocutaneous stimulation at depilated cheek (0.4 mA intensity, 10 ms duration, 1 s inter-pulse interval). Similar to day 1- and 2, all rats were acclimatized to test equipment followed by measurements of ES-induced facial mechanical- heat- and cold allodynia (“0” time point on figures). After measurement of hypersensitivity threshold, rats from group A-D received the vehicle and three doses of Compound 1 as mentioned above while group F received single acute dose of 3 mg/kg of Compound 1. Treatment effects on pain thresholds were evaluated 2- and 4 hours after administration by assessing mechanical- (Von Frey) and thermal (heat and cold) withdrawal threshold.

Sequence of GABAA receptors containing the a5 subunit (P31644 32-462): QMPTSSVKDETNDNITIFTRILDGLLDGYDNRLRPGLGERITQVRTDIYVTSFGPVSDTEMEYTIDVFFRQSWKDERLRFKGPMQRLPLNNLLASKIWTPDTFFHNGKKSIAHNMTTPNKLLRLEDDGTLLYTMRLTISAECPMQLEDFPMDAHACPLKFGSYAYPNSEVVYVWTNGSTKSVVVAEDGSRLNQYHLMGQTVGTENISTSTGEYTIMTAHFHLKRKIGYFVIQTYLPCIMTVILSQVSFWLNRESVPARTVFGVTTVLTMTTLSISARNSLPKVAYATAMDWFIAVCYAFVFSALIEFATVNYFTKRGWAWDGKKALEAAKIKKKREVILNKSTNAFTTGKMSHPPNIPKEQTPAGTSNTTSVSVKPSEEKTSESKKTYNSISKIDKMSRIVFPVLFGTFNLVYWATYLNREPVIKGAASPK
Sequence of GABAA receptors containing the a5 subunit (P47870 25-512 partner limits assumed): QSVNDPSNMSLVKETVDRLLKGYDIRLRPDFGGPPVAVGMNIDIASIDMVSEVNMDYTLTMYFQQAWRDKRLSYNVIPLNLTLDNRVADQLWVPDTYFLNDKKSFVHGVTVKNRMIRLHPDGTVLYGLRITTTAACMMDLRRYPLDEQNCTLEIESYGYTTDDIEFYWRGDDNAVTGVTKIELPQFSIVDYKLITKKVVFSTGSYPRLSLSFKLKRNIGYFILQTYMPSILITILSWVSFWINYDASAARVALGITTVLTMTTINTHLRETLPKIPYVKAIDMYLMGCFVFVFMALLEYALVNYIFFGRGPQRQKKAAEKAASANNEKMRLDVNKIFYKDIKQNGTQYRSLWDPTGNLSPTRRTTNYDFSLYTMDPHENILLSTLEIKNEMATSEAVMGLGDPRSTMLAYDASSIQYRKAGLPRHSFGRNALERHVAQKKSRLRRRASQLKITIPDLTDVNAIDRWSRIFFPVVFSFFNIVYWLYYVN
Sequence of GABAA receptors containing the a5 subunit (P18507 40-475): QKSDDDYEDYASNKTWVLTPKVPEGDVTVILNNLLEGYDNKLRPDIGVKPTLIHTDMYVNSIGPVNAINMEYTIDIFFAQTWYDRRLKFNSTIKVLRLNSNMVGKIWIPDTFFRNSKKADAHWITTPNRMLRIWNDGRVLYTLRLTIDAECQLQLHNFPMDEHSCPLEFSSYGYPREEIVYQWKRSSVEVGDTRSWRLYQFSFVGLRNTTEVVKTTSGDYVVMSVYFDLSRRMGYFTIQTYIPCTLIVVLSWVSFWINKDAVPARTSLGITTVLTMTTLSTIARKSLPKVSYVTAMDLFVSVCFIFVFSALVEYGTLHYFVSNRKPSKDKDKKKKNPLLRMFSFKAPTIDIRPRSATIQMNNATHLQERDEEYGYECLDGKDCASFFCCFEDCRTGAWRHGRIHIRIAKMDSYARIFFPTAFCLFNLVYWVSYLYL
Sequence of GABAA receptors containing the a3 subunit (P34903 29-492): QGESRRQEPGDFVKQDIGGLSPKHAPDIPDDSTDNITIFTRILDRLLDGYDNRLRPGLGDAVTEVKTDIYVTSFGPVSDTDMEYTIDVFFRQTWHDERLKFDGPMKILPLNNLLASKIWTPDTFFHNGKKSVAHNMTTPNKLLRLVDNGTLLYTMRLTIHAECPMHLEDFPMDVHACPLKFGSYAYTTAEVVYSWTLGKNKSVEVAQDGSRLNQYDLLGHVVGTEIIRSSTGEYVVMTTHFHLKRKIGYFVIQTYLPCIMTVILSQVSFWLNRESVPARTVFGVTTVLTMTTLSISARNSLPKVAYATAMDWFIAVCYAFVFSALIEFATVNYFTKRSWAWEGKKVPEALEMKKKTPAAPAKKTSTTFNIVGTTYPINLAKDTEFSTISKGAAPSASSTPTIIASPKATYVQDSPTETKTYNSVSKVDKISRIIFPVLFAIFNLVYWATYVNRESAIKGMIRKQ
Sequence of GABAA receptors containing the a3 subunit (P47870 25-512 partner limits assumed): as the sequence (P47870 25-512 partner limits assumed) above
Sequence of GABAA receptors containing the a3 subunit (P18507 40-475): as the sequence (P18507 40-475) above

## COc1ncc(-c2cccc(-n3cnc4cc(C(C)(C)O)cnc43)c2)c(OC)n1 [Compound 1, 2-(3-(3-(2,4-dimethoxypyrimidin-5-yl)phenyl)-3H-imidazo[4,5-b]pyridin-6-yl)propan-2-ol]
[1]
  positive allosteric modulation of GABAA receptors containing the a5 subunit: to a minor extent
[2]
  modulation of GABAA receptors containing the a3 subunit: positive allosteric modulator (PAM)
[3]; 10 mg/kg po, 2 and 4 hours of treatment, p<0.001 and p<0.0001 vs vehicle
  effect on cold pain threshold (acetone test, facial withdrawal latency) vs vehicle: significant enhancement of the cold pain threshold
[3]; po, p<0.01 after 2 and 4 hrs of dosing vs vehicle
  minimum effective dose, cold allodynia (acetone test): 3 mg/kg
[4]; acute 3 mg/kg po on day 9, p<0.001 and p<0.0001 post 2 and 4 hrs
  effect on established cold allodynia vs vehicle: reversed the mechanical allodynia
[4]; prophylactic 0.3 mg/kg po plus additional dose on day 9, p>0.05 post 2 hrs, p<0.01 post 4 hrs
  effect on established cold allodynia vs vehicle: reversed the cold allodynia dose dependently
[4]; prophylactic 1 mg/kg po once daily for 7 days, p<0.05 vs vehicle
  development of cold allodynia vs vehicle: significantly reduced the development of cold allodynia
[4]; prophylactic 1 mg/kg po plus additional dose on day 9, p<0.01 post 2 hrs, p<0.0001 post 4 hrs
  effect on established cold allodynia vs vehicle: reversed the cold allodynia dose dependently
[4]; prophylactic 3 mg/kg po once daily for 7 days, p<0.0001 vs vehicle
  development of cold allodynia vs vehicle: significantly reduced the development of cold allodynia
[4]; prophylactic 3 mg/kg po plus additional dose on day 9, p<0.0001 post 2 hrs and post 4 hrs
  effect on established cold allodynia vs vehicle: reversed the cold allodynia dose dependently

Source: patent US20240197733A1, “A GABA RECEPTOR MODULATOR FOR USE IN THE TREATMENT OF PAIN” (SANIONA A/S, priority 2021, published 2024)
